Where a name gives a salt, the structure may show the parent alone.

For ten compounds, IC50 results are on record in US12180434B2, “Spiro compounds as malodor counteracting ingredients” (Firmenich SA, priority 2017, dated 2024).

The target of one assay is T1, OR51E1 olfactory receptor (Homo sapiens, UniProt Q8TCB6).
T1 construct: expressed in transfected cells
T1 sequence (Q8TCB6 1-318): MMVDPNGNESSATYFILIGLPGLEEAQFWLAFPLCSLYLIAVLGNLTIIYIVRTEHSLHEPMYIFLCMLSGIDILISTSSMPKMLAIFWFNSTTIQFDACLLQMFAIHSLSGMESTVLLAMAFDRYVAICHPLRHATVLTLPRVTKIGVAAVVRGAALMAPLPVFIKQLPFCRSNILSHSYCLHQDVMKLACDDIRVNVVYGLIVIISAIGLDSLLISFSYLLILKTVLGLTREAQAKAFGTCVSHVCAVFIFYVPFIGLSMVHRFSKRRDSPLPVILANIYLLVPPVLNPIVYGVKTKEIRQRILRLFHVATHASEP
Description: Inhibitory dose-response assay in a cell line expressing the butyric acid olfactory receptor OR51E1. It counts as cell-based. The conditions noted are these: highly stringent screening conditions; cells treated with 67 μM butyric acid (EC94); read-out: calculated IC50, inhibitor of the butyric acid olfactory receptor OR51E1.
As usually defined, the IC50 is the midpoint of a concentration-inhibition curve. With `CC1CCCCC12CCCCC2O` (centres unmarked) [Compound 12, 11-methylspiro[5.5]undecan-5-ol], the IC50 is 805 µM.

For the compound `CC(=O)O[C@H]([C@H]1CCCC[C@@H]1C)C(C)(C)C` (racemic) [Compound 14, (1RS)-2,2-dimethyl-1-[(1SR,2SR)-2-methylcyclohexyl]propyl acetate], the half-maximal inhibitory concentration (IC50) was 68.6 µM.

Consider `COC1C(C)(C)CCCC12CC=CC2` (centres unmarked) [Compound 8, 10-methoxy-9,9-dimethylspiro[4.5]dec-2-ene], for which the IC50 was 193 µM.

As to `CC(=O)O[C@@H]1C(C)(C)CCC[C@]12CC=C(C)C[C@H]2C` (racemic) [Compound 1, (1RS,6RS,11RS)-2,2,9,11-tetramethylspiro[5.5]undec-8-en-1-yl acetate], the IC50 is 45.2 µM.

As for `CC(=O)OC1C(C)(C)CCCC12CC=C(C)CC2C` (centres unmarked) [Compound 6, (3,5,10,10-tetramethylspiro[5.5]undec-2-en-11-yl) acetate], the concentration for half-maximal inhibition (IC50) was 78.1 µM.

As for `CC(=O)OC(C1C(C)C=C(C)CC1C)C(C)(C)C` (centres unmarked) [Compound 17, [2,2-dimethyl-1-(2,4,6-trimethylcyclohex-3-en-1-yl)propyl]acetate], the 50% inhibitory concentration (IC50) is 43.4 µM.

On to `CC1CC=CCC12CCCC(C)(C)C2OC=O` (centres unmarked) [Compound 5, (5,10,10-trimethylspiro[5.5]undec-2-en-11-yl) formate], for which the IC50 is 46.9 µM.

Regarding `CC(=O)OC1C(C)(C)CCCC12CC=CC2` (centres unmarked) [Compound 7, (9,9-dimethylspiro[4.5]dec-2-en-10-yl) acetate], the 50% inhibitory concentration (IC50) was 84.3 µM.

As for `CC(=O)OC1C(C)(C)CCCC12CC(C)=C(C)C2` (centres unmarked) [Compound 2, (2,3,9,9-tetramethylspiro[4.5]dec-2-en-10-yl) acetate], the half-maximal inhibitory concentration (IC50) is 18.6 µM.

On to `CC(=O)OC1C(C)(C)CCCC12C(C)C=CCC2C` (centres unmarked) [Compound 3, (1,5,10,10-tetramethylspiro[5.5]undec-3-en-11-yl) acetate], for which the concentration for half-maximal inhibition (IC50) was 4.74 µM.

The assay is the same for the next values; noted with them: table; butyric acid at EC80, EC87, EC90, or EC100; read-out: IC50.
As for `CC(=O)O[C@H]([C@H]1CCCC[C@@H]1C)C(C)(C)C` (racemic) [Compound 14, (1RS)-2,2-dimethyl-1-[(1SR,2SR)-2-methylcyclohexyl]propyl acetate], the IC50 was found to be 170 µM.
